According to PMC7413254 (Nature Communications, 2020):
“And” between values parts separate entries of the source, which are not always exact repeats. Identical values can stand only once. Like-named read-outs stand apart in the source and are kept apart here.

Key:
PfCRT^Dd2 [1] = target: T1, PfCRT^Dd2 (Plasmodium falciparum, UniProt Q9N623, A220S/I356T/K76T/M74I/N326S/N75E/Q271E/R371I); experiment: cell-based; type: cell-based; conditions: […]
Procedure, shortened: (§1)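 Oocytes (ten per treatment, ≥4 independent frogs/days) were preloaded by injecting VF-6 in 25 nL ND96 at pH 5.0, 5.5, 6.0 or 7.0, or Na^+-free choline buffer, then uptake run 1.5 h, 27.5 °C, ND96 pH 5.5 by default. Internal concentrations assumed ~400 nL oocyte volume.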

PfCRT^Ecu1110 [2] = target: T2, PfCRT^Ecu1110 (Plasmodium falciparum, UniProt Q9N623, A220S/I356L/K76T/N326D); experiment: cell-based; type: cell-based; conditions: […]
T2 sequence (Q9N623 whole entry A220S/I356L/K76T/N326D): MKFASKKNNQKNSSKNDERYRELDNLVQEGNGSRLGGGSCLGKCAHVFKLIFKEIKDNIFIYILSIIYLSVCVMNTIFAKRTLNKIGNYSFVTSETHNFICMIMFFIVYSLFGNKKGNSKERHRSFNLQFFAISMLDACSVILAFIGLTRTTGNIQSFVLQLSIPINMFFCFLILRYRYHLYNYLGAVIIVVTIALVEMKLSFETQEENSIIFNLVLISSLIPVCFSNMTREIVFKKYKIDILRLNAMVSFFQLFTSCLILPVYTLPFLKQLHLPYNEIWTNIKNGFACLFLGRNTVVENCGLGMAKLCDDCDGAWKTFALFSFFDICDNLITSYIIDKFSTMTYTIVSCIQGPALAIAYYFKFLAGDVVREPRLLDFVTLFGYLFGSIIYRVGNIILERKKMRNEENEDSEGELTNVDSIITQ
Procedure, shortened: as §1

PfNT1 = target: T3, PfNT1 (Plasmodium falciparum, UniProt Q8IDM6); experiment: cell-based; type: cell-based; conditions: […]
T3 construct: expressed in transfected cells; host or cells: Xenopus laevis oocytes (stage V-VI), cRNA-injected
T3 sequence (Q8IDM6 whole entry): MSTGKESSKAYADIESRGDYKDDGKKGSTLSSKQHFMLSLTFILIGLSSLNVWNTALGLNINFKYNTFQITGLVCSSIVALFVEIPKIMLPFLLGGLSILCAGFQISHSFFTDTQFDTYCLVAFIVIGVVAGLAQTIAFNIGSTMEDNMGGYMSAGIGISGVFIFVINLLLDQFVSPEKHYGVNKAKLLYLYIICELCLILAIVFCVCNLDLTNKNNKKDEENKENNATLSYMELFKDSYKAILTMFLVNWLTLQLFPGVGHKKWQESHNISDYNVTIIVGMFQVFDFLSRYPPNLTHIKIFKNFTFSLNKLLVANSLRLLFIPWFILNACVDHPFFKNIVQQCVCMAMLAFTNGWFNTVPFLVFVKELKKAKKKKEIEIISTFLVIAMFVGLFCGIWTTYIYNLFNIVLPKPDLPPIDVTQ
Procedure, shortened: as §1

PfCRT^3D7 [3] = target: T4, PfCRT^3D7 (Plasmodium falciparum, UniProt Q8IBZ9); experiment: cell-based; type: cell-based
T4 sequence (Q8IBZ9 59-398): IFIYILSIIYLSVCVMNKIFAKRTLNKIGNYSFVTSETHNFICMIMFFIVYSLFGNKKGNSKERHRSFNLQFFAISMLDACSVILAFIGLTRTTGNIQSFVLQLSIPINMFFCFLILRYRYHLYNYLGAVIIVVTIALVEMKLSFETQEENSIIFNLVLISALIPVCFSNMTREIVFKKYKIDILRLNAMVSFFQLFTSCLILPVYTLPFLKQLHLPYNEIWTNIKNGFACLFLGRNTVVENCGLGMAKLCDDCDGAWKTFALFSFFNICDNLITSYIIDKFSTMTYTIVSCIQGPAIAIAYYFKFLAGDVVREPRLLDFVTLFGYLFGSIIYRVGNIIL
Procedure, shortened: as §1

PfCRT [4] = experiment: Potential co-substrates tested for influx of VF-6 via PfCRT into the oocyte; type: cell-based, Plasmodium falciparum; parameters: key: X: Compounds that have been tested as potential co-substrates but are not required for influx of VF-6 via PfCRT into the oocyte
non-expressing oocytes [5] = type: cell-based, Xenopus laevis
Procedure, shortened: as §1

PfCRT^Dd2 [6] = target: T1, PfCRT^Dd2; experiment: [3H]CQ uptake into Xenopus oocytes, cis-inhibition by unlabelled solute; type: cell-based
Procedure, shortened: (§2)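 Using pH 5.5 ND96 at 27.5 °C, uptake is followed for 1.5 h, stopped with ice-cold buffer, and quantified as accumulated radioactivity per oocyte after SDS lysis.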

PfCRT^Ecu1110 [7] = target: T2, PfCRT^Ecu1110; experiment: as above; type: cell-based
Procedure, shortened: as §2

non-expressing oocytes [8] = experiment: cells; type: cell-based, Xenopus laevis; conditions: Xenopus laevis, Oocyte
Procedure, shortened: as §2

PfCRT^3D7 [9] = target: T4, PfCRT^3D7; experiment: cell-based; type: cell-based; remark: listed apart in the source
Procedure, shortened: as §2

PfCRT [10] = experiment: Test of solutes as potential co-substrates for influx of VF-6 via PfCRT into the oocyte; type: cell-based, Plasmodium falciparum; parameters: key: X: Compounds that have been tested as potential co-substrates but are not required for influx of VF-6 via PfCRT into the oocyte; conditions: X = tested
[11] = read-out: Uptake of [3H]CQ (% PfCRTDd2 control), trans-stimulation, PfNT1, SEM
[12] = read-out: Uptake of [3H]CQ (% PfNT1 control), trans-stimulation
[13] = read-out: PfCRT-mediated [3H]CQ transport, trans-stimulation (% PfCRT3D7 control)
[14] = read-out: Uptake of [3H]CQ (% PfCRT3D7 control), trans-stimulation
[15] = read-out: Uptake of [3H]CQ (% PfCRTDd2 control), trans-stimulation, PfCRT3D7, SEM
[16] = read-out: PfCRT-mediated [3H]CQ transport, cis-inhibition (% PfCRTDd2 control)
[17] = read-out: Uptake of [3H]CQ (% PfCRTDd2 control), cis-inhibition, PfCRTDd2, SEM
[18] = read-out: PfCRT-mediated [3H]CQ transport, cis-inhibition (% PfCRTEcu1110 control)
[19] = read-out: Uptake of [3H]CQ (% PfCRTDd2 control), cis-inhibition, PfCRTEcu1110, SEM
[20] = read-out: Uptake of [3H]CQ (% PfCRTEcu1110 control), cis-inhibition
[21] = read-out: [3H]CQ transport (% PfCRTEcu1110 control), cis-inhibition, PfCRTEcu1110, SEM
[22] = read-out: Uptake of [3H]CQ (% PfCRTDd2 control), cis-inhibition, non-expressing oocytes, SEM
[23] = read-out: Uptake of [3H]CQ (% non-expressing oocyte control), cis-inhibition
[24] = read-out: Uptake of [3H]CQ (% PfCRT3D7 control), cis-inhibition
[25] = read-out: Uptake of [3H]CQ (% PfCRTDd2 control), cis-inhibition, PfCRT3D7, SEM

T1 sequence (Q9N623 whole entry A220S/I356T/K76T/M74I/N326S/N75E/Q271E/R371I): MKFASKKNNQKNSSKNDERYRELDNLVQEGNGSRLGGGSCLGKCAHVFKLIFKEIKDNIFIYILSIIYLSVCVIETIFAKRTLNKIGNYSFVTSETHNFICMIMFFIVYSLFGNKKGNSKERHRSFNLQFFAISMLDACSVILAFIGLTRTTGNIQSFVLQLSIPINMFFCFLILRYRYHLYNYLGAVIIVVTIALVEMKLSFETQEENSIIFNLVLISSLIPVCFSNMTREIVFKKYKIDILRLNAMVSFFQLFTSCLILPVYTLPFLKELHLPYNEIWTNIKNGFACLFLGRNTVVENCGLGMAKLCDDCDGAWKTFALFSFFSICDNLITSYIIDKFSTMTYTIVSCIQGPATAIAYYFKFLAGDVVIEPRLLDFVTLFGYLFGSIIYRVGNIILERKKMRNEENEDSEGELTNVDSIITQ

## CSCC[C@H](N)C(=O)O [L-methionine]
PfCRT^Dd2 [1]; pH 5.5, read-out: Uptake of [3H]CQ (% PfCRTDd2 control), trans-stimulation, PfCRTDd2, total [3H]CQ transport, [test solute]i = 5 mM (intracellular), mean ± SEM, SEM
  activity at 5000 µM: 100 ± 3.2%
PfCRT^Dd2 [1]; pH 5.5, read-out: Uptake of [3H]CQ (% PfCRTDd2 control), trans-stimulation, PfCRTDd2 oocytes, [test solute]i = 5 mM, total [3H]CQ transport, normalised to the oocyte type control
  activity at 5000 µM: 100 ± 3.2%
PfCRT^Dd2 [1]; pH 5.5, read-out: Uptake of [3H]CQ (% PfCRTDd2 control), trans-stimulation, PfCRTDd2 oocytes, [test solute]i = 45 mM (30 mM for some solutes due to solubility), total [3H]CQ transport, normalised to the oocyte type control
  activity at 45000 µM: 99 ± 1%
PfCRT^Ecu1110 [2]; pH 5.5, read-out: Uptake of [3H]CQ (% PfCRTEcu1110 control), trans-stimulation, PfCRTEcu1110 oocytes, [test solute]i = 5 mM, total [3H]CQ transport, normalised to the oocyte type control
  activity at 5000 µM: 98 ± 2.1%
PfCRT^Ecu1110 [2]; pH 5.5, read-out: Uptake of [3H]CQ (% PfCRTEcu1110 control), trans-stimulation, PfCRTEcu1110 oocytes, [test solute]i = 45 mM (30 mM for some solutes due to solubility), total [3H]CQ transport, normalised to the oocyte type control
  activity at 45000 µM: 100 ± 3.2%
PfCRT^Ecu1110 [2]; read-out: Uptake of [3H]CQ (% PfCRTDd2 control), trans-stimulation, PfCRTEcu1110, total [3H]CQ transport, [test solute]i = 5 mM (intracellular), mean ± SEM, SEM
  activity at 5000 µM: 35 ± 1.3%
PfCRT^Ecu1110 [2]; read-out: Uptake of [3H]CQ (% PfCRTDd2 control), trans-stimulation, PfCRTEcu1110, total [3H]CQ transport, [test solute]i = 45 mM (intracellular; 30 mM for some solutes due to solubility), mean ± SEM, SEM
  activity at 45000 µM: 36 ± 2.2%
PfNT1; [11]
  activity at 5000 µM: 2.2 ± 0.06%
  activity at 45000 µM: 2.7 ± 0.04%
PfNT1; [12]
  activity at 5000 µM: 100 ± 2.5%
  activity at 45000 µM: 99 ± 2.6%
PfCRT^3D7 [3]; SEM
  [3H]CQ transport (% PfCRT3D7 control), trans-stimulation, PfCRT3D7: 0.3 ± 0.03 % PfCRT3D7 control
PfCRT^3D7 [3]; [13]
  activity at 5000 µM: 97 ± 2.1%
  activity at 45000 µM: 97 ± 2.7%
PfCRT^3D7 [3]; [14]
  activity at 5000 µM: 99 ± 3.6%
  activity at 45000 µM: 99 ± 3.1%
PfCRT^3D7 [3]; [15]
  activity at 5000 µM: 3.3 ± 0.03%
  activity at 45000 µM: 3.3 ± 0.02%
PfCRT [4]
  Tested as potential co-substrate but not required for influx of VF-6 via PfCRT into the oocyte: X
non-expressing oocytes [5]
  Uptake of [3H]CQ (% non-expressing oocyte control), trans-stimulation: 99 ± 3.8 % non-expressing oocyte control and 98 ± 4.2 % non-expressing oocyte control
non-expressing oocytes [5]; SEM
  Uptake of [3H]CQ (% PfCRTDd2 control), trans-stimulation, non-expressing oocytes: 2.4 ± 0.02 % PfCRTDd2 control and 2.8 ± 0.03 % PfCRTDd2 control
PfCRT^Dd2 [6]; [16]
  inhibition at 500 µM: 96 ± 3.6%
  inhibition at 2000 µM: 95 ± 5.1%
PfCRT^Dd2 [6]; [17]
  inhibition at 500 µM: 98 ± 2.4%
  inhibition at 1000 µM: 100 ± 2.1%
  inhibition at 2000 µM: 97 ± 2.4%
PfCRT^Ecu1110 [7]; [18]
  inhibition at 500 µM: 94 ± 4.4%
  inhibition at 1000 µM: 95 ± 3.1%
  inhibition at 2000 µM: 98 ± 1.5%
PfCRT^Ecu1110 [7]; [19]
  inhibition at 500 µM: 31 ± 1.5%
  inhibition at 1000 µM: 32 ± 1.1%
  inhibition at 2000 µM: 33 ± 1.2%
PfCRT^Ecu1110 [7]; [20]
  inhibition at 500 µM: 96 ± 2.5%
  inhibition at 1000 µM: 97 ± 5.3%
  inhibition at 2000 µM: 100 ± 2.5%
PfCRT^Ecu1110 [7]; [21]
  inhibition at 500 µM: 28 ± 0.5%
  inhibition at 1000 µM: 29 ± 0.5%
  inhibition at 2000 µM: 30 ± 0.5%
non-expressing oocytes [8]; [22]
  inhibition at 500 µM: 2.7 ± 0.03%
  inhibition at 1000 µM: 2.5 ± 0.01%
  inhibition at 2000 µM: 2.9 ± 0.04%
non-expressing oocytes [8]; [23]
  inhibition at 500 µM: 99 ± 3.6%
  inhibition at 1000 µM: 99 ± 3.5%
  inhibition at 2000 µM: 101 ± 4.6%
PfCRT^3D7 [9]; [24]
  inhibition at 500 µM: 100 ± 3.6%
  inhibition at 1000 µM: 100 ± 3.3%
  inhibition at 2000 µM: 102 ± 2.5%
PfCRT^3D7 [9]; [25]
  inhibition at 500 µM: 2.4 ± 0.07%
  inhibition at 1000 µM: 2.2 ± 0.06%
  inhibition at 2000 µM: 3.4 ± 0.07%
PfCRT [10]
  Tested as potential co-substrate but not required for influx of VF-6 via PfCRT into the oocyte: X
